Patent US12503452B2 (Curza Global, LLC, priority 2019, dated 2025)

What was measured:
[1] = tested on: E. coli S30 extract (bacterial protein synthesis); assay: E. coli S30 extract coupled transcription-translation luciferase assay (inhibition of bacterial protein synthesis); format: biochemical; settings: class by IC50 or % inhibition @ 1 μM, read-out: S30 IC50 (μM/% inhib.)
Procedure, shortened: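 Cell-free coupled transcription-translation in E. coli S30 circular-DNA extract, with pBESTluc plasmid as template and complete amino acid mix. Eight 2-fold compound dilutions were incubated with the extract 1 h at 37 °C, chilled, then luciferase luminescence was read. % inhibition was taken relative to no-inhibitor wells; no-DNA wells gave background.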

[2] = target: Rabbit Reticulocyte Lysate (eukaryotic protein synthesis); assay: Rabbit reticulocyte lysate luciferase assay (inhibition of eukaryotic protein synthesis); format: biochemical; settings: class by IC50 or % inhibition @ 1 μM, read-out: Rabbit reticulocyte IC50 (μM/% inhib.)
Procedure, shortened: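 Nuclease-treated rabbit reticulocyte lysate translating luciferase control RNA, with complete amino acids, was incubated at 30° C. for 90 minutes with 2-fold serial compound dilutions. Luminescence was measured after adding luciferase reagent. % inhibition was relative to water controls, with no-RNA wells as background.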

A. baumannii (Ab) = assay: Broth microdilution minimum inhibitory concentration (MIC); format: cell-based; settings: A. baumannii, growth medium with sodium bicarbonate; for MIC: Acinetobacter baumannii, read-out: Ab + bicarb MIC
Procedure, shortened: (§1)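 CLSI broth microdilution (M07-A9, slightly modified) in CAMHB, optionally with 6.25 or 25 mM sodium bicarbonate or 0–50% heat-inactivated human serum. Two-fold serial dilutions (8 concentrations, triplicate) were inoculated at 5×10^4 CFU/well from 0.5 McFarland cultures grown at 35±2 °C.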

E. faecalis (Ef) = assay: as above; format: cell-based; settings: E. faecalis, growth medium with sodium bicarbonate; for MIC: Enterococcus faecalis, read-out: Ef + bicarb MIC
Procedure, shortened: as §1

P. aeruginosa (Pa) = assay: as above; format: cell-based; settings: P. aeruginosa, growth medium with sodium bicarbonate; for MIC: Pseudomonas aeruginosa, read-out: Pa MIC + bicarb
Procedure, shortened: as §1

S. aureus (Sa) = assay: as above; format: cell-based; settings: S. aureus, growth medium with sodium bicarbonate; for MIC: Staphylococcus aureus, read-out: Sa + bicarb MIC
Procedure, shortened: as §1

E. coli (Ec) = assay: as above; format: cell-based; settings: E. coli, growth medium with sodium bicarbonate; for MIC: Escherichia coli, read-out: E. coli + bicarb MIC
Procedure, shortened: as §1

## CC(Cc1ccc(-n2ccc(NC(=O)N3CCN(C(=O)C(C)(C)N)CC3)nc2=O)cc1)N1CC[C@H](CN)C1 (stereo partly shown) [Compound 170]
[1]
  IC50: < 0.5 µM
[2]
  IC50: > 1 µM
A. baumannii (Ab)
  MIC: > 32 µg/mL
E. faecalis (Ef)
  Ef + bicarb MIC: + (An MIC value (μg/mL) that is 32 μg/mL or greater)
P. aeruginosa (Pa)
  Pa MIC + bicarb: ++ (An MIC value (μg/mL) that is 8 μg/mL or greater and less than 32 μg/mL)
S. aureus (Sa)
  MIC: 8 to 32 µg/mL
E. coli (Ec)
  MIC: < 8 µg/mL

## CC(Cc1ccc(-n2ccc(NC(=O)N3CCN(C(=O)C(C)(C)N)CC3)nc2=O)cc1)N[C@H]1CC[C@H](N)CC1 (stereo partly shown) [Compound 171]
[1]
  IC50: > 1 µM
[2]
  IC50: > 1 µM
A. baumannii (Ab)
  MIC: > 32 µg/mL
E. faecalis (Ef)
  MIC: > 32 µg/mL
P. aeruginosa (Pa)
  MIC: > 32 µg/mL
S. aureus (Sa)
  MIC: 8 to 32 µg/mL
E. coli (Ec)
  MIC: < 8 µg/mL

## CC(Cc1ccc(-n2ccc(NC(=O)N3CCN(C(=O)C(C)(C)N)CC3)nc2=O)cc1)N[C@@H]1CC[C@H](N)C1 (stereo partly shown) [Compound 172]
[1]
  IC50: < 0.5 µM
[2]
  IC50: > 1 µM
A. baumannii (Ab)
  MIC: > 32 µg/mL
E. faecalis (Ef)
  MIC: < 8 µg/mL
P. aeruginosa (Pa)
  MIC: > 32 µg/mL
S. aureus (Sa)
  MIC: < 8 µg/mL
E. coli (Ec)
  MIC: < 8 µg/mL

## CC(Cc1ccc(-n2ccc(NC(=O)N3CCN(C(=O)C(C)(C)N)CC3)nc2=O)cc1)N[C@@H]1CC[C@@H](N)C1 (stereo partly shown) [Compound 173]
[1]
  IC50: < 0.5 µM
[2]
  IC50: > 1 µM
A. baumannii (Ab)
  MIC: > 32 µg/mL
E. faecalis (Ef)
  MIC: 8 to 32 µg/mL
P. aeruginosa (Pa)
  MIC: > 32 µg/mL
S. aureus (Sa)
  MIC: < 8 µg/mL
E. coli (Ec)
  MIC: < 8 µg/mL

## CC(Cc1ccc(-n2ccc(NC(=O)N3CCN(C(=O)C(C)(C)N)CC3)nc2=O)cc1)N[C@H]1CC[C@@H](N)CC1 (stereo partly shown) [Compound 174]
[1]
  IC50: < 0.5 µM
[2]
  IC50: > 1 µM
A. baumannii (Ab)
  MIC: 8 to 32 µg/mL
E. faecalis (Ef)
  MIC: < 8 µg/mL
P. aeruginosa (Pa)
  MIC: > 32 µg/mL
S. aureus (Sa)
  MIC: < 8 µg/mL
E. coli (Ec)
  MIC: < 8 µg/mL

## CC(Cc1ccc(-n2ccc(NC(=O)N3CCN(C(=O)C(C)(C)N)CC3)nc2=O)cc1)N(C)[C@H]1CC[C@@H](N)CC1 (stereo partly shown) [Compound 175]
[1]
  IC50: < 0.5 µM
[2]
  IC50: > 1 µM
A. baumannii (Ab)
  MIC: > 32 µg/mL
E. faecalis (Ef)
  MIC: < 8 µg/mL
P. aeruginosa (Pa)
  Pa MIC + bicarb: ++ (An MIC value (μg/mL) that is 8 μg/mL or greater and less than 32 μg/mL)
S. aureus (Sa)
  MIC: < 8 µg/mL
E. coli (Ec)
  MIC: < 8 µg/mL

## CC(Cc1ccc(-n2ccc(NC(=O)N3CCN(C(=O)C(C)(C)N)CC3)nc2=O)cc1)N(C)[C@H]1CC[C@@H](N)CC1 (stereo partly shown) [Compound 176]
[1]
  IC50: < 0.5 µM
[2]
  IC50: > 1 µM
A. baumannii (Ab)
  Ab + bicarb MIC: + (An MIC value (μg/mL) that is 32 μg/mL or greater)
E. faecalis (Ef)
  Ef + bicarb MIC: +++ (An MIC value (μg/mL) that is less than 8 μg/mL)
P. aeruginosa (Pa)
  Pa MIC + bicarb: + (An MIC value (μg/mL) that is 32 μg/mL or greater)
S. aureus (Sa)
  Sa + bicarb MIC: +++ (An MIC value (μg/mL) that is less than 8 μg/mL)
E. coli (Ec)
  E. coli + bicarb MIC: +++ (An MIC value (μg/mL) that is less than 8 μg/mL)

## CC(C)(N)C(=O)N1CCN(C(=O)Nc2ccn(-c3ccc(CCN[C@H]4CC[C@@H](N)CC4)cc3)c(=O)n2)CC1 [Compound 179]
[1]
  IC50: < 0.5 µM
[2]
  IC50: > 1 µM
A. baumannii (Ab)
  MIC: > 32 µg/mL
E. faecalis (Ef)
  MIC: 8 to 32 µg/mL
P. aeruginosa (Pa)
  MIC: > 32 µg/mL
S. aureus (Sa)
  MIC: < 8 µg/mL
E. coli (Ec)
  MIC: < 8 µg/mL

## CC(C)(N)C(=O)N1CCN(C(=O)Nc2ccn(-c3ccc(CCN[C@H]4CC[C@H](N)CC4)cc3)c(=O)n2)CC1 [Compound 180]
[1]
  IC50: 0.5 to 1 µM
[2]
  IC50: > 1 µM
A. baumannii (Ab)
  MIC: > 32 µg/mL
E. faecalis (Ef)
  MIC: > 32 µg/mL
P. aeruginosa (Pa)
  MIC: > 32 µg/mL
S. aureus (Sa)
  MIC: 8 to 32 µg/mL
E. coli (Ec)
  MIC: < 8 µg/mL

## CC(C)(N)C(=O)N1CCN(C(=O)Nc2ccn(-c3ccc(CCN[C@@H]4CC[C@H](N)C4)cc3)c(=O)n2)CC1 [Compound 181]
[1]
  IC50: < 0.5 µM
[2]
  IC50: > 1 µM
A. baumannii (Ab)
  MIC: > 32 µg/mL
E. faecalis (Ef)
  MIC: 8 to 32 µg/mL
P. aeruginosa (Pa)
  MIC: > 32 µg/mL
S. aureus (Sa)
  MIC: < 8 µg/mL
E. coli (Ec)
  MIC: < 8 µg/mL

## CC(CN1CC(N)C1)Oc1ccc(-n2ccc(NC(=O)N3CCN(C(=O)C(C)(C)N)CC3)nc2=O)cc1 (stereo not shown) [Compound 182]
[1]
  IC50: > 1 µM
[2]
  IC50: > 1 µM
A. baumannii (Ab)
  MIC: > 32 µg/mL
E. faecalis (Ef)
  MIC: > 32 µg/mL
P. aeruginosa (Pa)
  MIC: > 32 µg/mL
S. aureus (Sa)
  MIC: > 32 µg/mL
E. coli (Ec)
  MIC: 8 to 32 µg/mL

## CC(CNC1CNC1)Oc1ccc(-n2ccc(NC(=O)N3CCN(C(=O)C(C)(C)N)CC3)nc2=O)cc1 (stereo not shown) [Compound 183]
[1]
  IC50: > 1 µM
[2]
  IC50: > 1 µM
A. baumannii (Ab)
  MIC: > 32 µg/mL
E. faecalis (Ef)
  MIC: > 32 µg/mL
P. aeruginosa (Pa)
  MIC: > 32 µg/mL
S. aureus (Sa)
  MIC: > 32 µg/mL
E. coli (Ec)
  MIC: > 32 µg/mL

## CC(CN1CC[C@H](CN)C1)Oc1ccc(-n2ccc(NC(=O)N3CCN(C(=O)C(C)(C)N)CC3)nc2=O)cc1 (stereo partly shown) [Compound 184]
[1]
  IC50: < 0.5 µM
[2]
  IC50: > 1 µM
A. baumannii (Ab)
  MIC: > 32 µg/mL
E. faecalis (Ef)
  MIC: 8 to 32 µg/mL
P. aeruginosa (Pa)
  MIC: > 32 µg/mL
S. aureus (Sa)
  MIC: < 8 µg/mL
E. coli (Ec)
  MIC: < 8 µg/mL
